From ChEMBL document CHEMBL1126659, “5-chloro-3-(phenylsulfonyl)indole-2-carboxamide: a novel, non-nucleoside inhibitor of HIV-1 reverse transcriptase” (J Med Chem, 1993)
Where a name gives a salt, the structure may show the parent alone.

system: MT4; experiment: Inhibition of cell culture in MT-4 cells; format: functional; conditions: Homo sapiens, read-out: CIC95

Row | Structure (SMILES) | IC95 [nM]
1 | NC(=O)c1[nH]c2ccc(Cl)cc2c1[S+]([O-])c1ccccc1 (stereo not given) | 200
2 | CNC(=O)c1[nH]c2ccc(Cl)cc2c1Sc1ccccc1 | 200
3 | CN(C)C(=O)c1[nH]c2ccccc2c1Sc1ccccc1 | > 3000
4 | [O-][S+](Cc1[nH]c2ccccc2c1[S+]([O-])c1ccccc1)c1ccccc1 (stereo not given) | > 3000
5 | COC(=O)c1[nH]c2ccc(Cl)cc2c1Sc1ccccc1 | 1500
6 | [O-][S+](Cc1[nH]c2ccccc2c1Sc1ccccc1)c1ccccc1 (stereo not given) | 400
7 | [O-][S+](Cc1[nH]c2ccc(Cl)cc2c1Sc1ccccc1)c1ccccc1 (stereo not given) | 800
8 | CNC(=O)c1[nH]c2ccccc2c1Sc1ccccc1 | 800
9 | COC(=O)c1[nH]c2ccccc2c1Sc1ccccc1 | > 3000
10 | NC(=O)c1[nH]c2ccc(Cl)cc2c1Sc1ccccc1 | 200
11 | CC(C)=CCN1Cc2cc(Cl)cc3[nH]c(=S)n(c23)C[C@@H]1C | 400
12 | CCNc1cccnc1N1CCN(C(=O)c2cc3cc(OC)ccc3[nH]2)CC1 [ATEVIRDINE MESYLATE] | 3000
13 | CCc1cc(NCc2nc3c(Cl)ccc(Cl)c3o2)c(O)nc1C [L-697661] | 50
14 | NC(=O)c1[nH]c2ccc(Cl)cc2c1S(=O)(=O)c1ccccc1 [L-737126] | 3
15 | Cc1ccnc2c1NC(=O)c1cccnc1N2C1CC1 [NEVIRAPINE] | 400
